Counter-ions that a name gives are not always drawn.
Columns and labels:
FTH ferritin [1] = molecular target: T1, FTH ferritin (Homo sapiens, UniProt P02794); test: estimation of state of DOX in FTH ferritin internal cavity; details: 165 molecules of DOX per molecule of FTH ferritin, cavity volume 0.18 zL
T1 construct: made in house; host or cells: Escherichia coli BL21 (DE3), plasmid pET20-FTH
Source text: Ferritin has a cage shape having a diameter of 12 nm, and the diameter of an internal cavity thereof is 7 nm. Ideally, the volume of the internal cavity is 0.18 zL (zL: Zepto little, 10 to the negative power of 21). […] In view of this, it is necessary to disassemble ferritin once to allow DOX to be released in advance for quantification of DOX incorporated in ferritin by means of spectroscopic evaluation.

FTH ferritin [2] = molecular target: T1, FTH ferritin; test: one-step process incorporation of small molecule agents into FTH ferritin; format: physicochemical; details: pH of buffer giving the largest amount of incorporation within ferritin
Experimental: All of the reactions were performed in 0.1 mL volume. […] The absorbances were measured using spectrophotometer (DU-800, Beckman Coulter Inc.) for these solutions, and the concentration of contained protein was determined using the protein assay CBB solution (Nacalai Tesque, Inc.) as well as bovine albumin as a standard. Absorbances at 280 nm and 480 nm were measured for Rhodamine B and Congo Red. […] Then, after the absorbances were calibrated based on the absorbances that were derived from the proteins and presumed by the amount of contained protein quantified using the protein assay CBB solution, the concentrations of small molecule agents were determined based on the calibration curves obtained by the absorbances of the molecules. […] As a result, the one-step process enabled incorporating also the small molecule agents with different physical properties such as molecular weight and pKa simply and easily.

FTHc ferritin = molecular target: T2, FTHc ferritin (Homo sapiens, UniProt P02794); test: one-step incorporation of DOX into mutant ferritin FTHc; format: physicochemical; details: pH 8, 50° C., 60 minutes, DOX 0.3 mg/L
T2 construct: pET20-FTH carrying a DNA encoding a human-derived ferritin H chain monomer as a template; single cysteine residue (C) appended; made in house; host or cells: Escherichia coli BL21 (DE3), plasmid pET20-FTHc
Experimental: PCR was carried out using pET20-FTH carrying a DNA encoding a human-derived ferritin H chain monomer as a template as well as the following primers: 5′-[…]-3′ (SEQ ID NO: 12) and 5′-[…]-3′ (SEQ ID NO: 13). The resulting PCR products were purified using Wizard DNA Clean-Up System (Promega Corporation), and then treated with restriction enzymes, Dpnl and BamHI (Takara Bio Inc.) for self-ligation in order to construct an expression plasmid (pET20-FTHc) carrying a gene encoding FTHc monomer with a cysteine added to the C-terminus. Ferritin including FTHc monomers is referred to as FTHc ferritin, as appropriate.
DOX was mixed with 1 mL of 50 mM Tris-HCl buffer (pH 8) that contains each mutate ferritin at a final concentration of 1 mg/mL, to achieve a final concentration of 0.3 mg/L, and then the resulting solutions were left to stand at 50° C. for 60 minutes. After the standing and centrifuging (at 15,000 rpm for one minute), the supernatant was injected into the desalting column PD-10 (Sephadex G-25 filled product, GE Healthcare Inc.) equilibrated with 10 mM Tris-HCl buffer (pH 8) to separate the protein from a reagent that was not encapsulated. […] The concentration of contained protein was determined using the protein assay CBB solution (Nacalai Tesque, Inc.) as well as bovine albumin as a standard. The DOX concentration was determined based on analysis of the absorbance at 480 nm.

T1 sequence (P02794 whole entry): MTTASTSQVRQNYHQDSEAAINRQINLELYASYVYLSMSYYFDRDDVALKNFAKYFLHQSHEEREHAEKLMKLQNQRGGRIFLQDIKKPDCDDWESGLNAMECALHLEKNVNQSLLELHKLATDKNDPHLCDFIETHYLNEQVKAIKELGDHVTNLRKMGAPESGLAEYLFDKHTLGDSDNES
T2 sequence (P02794 with tags, fused parts or gaps): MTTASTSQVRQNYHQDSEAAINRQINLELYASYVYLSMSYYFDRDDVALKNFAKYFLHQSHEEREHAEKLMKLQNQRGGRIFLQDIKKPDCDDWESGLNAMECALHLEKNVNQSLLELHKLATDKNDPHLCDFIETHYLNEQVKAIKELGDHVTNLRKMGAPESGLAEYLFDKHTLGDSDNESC

With `COc1cccc2c1C(=O)c1c(O)c3c(c(O)c1C2=O)C[C@@](O)(C(=O)CO)C[C@@H]3OC1CC(N)C(O)C(C)O1` (stereo partly drawn) [DOX, Doxorubicin hydrochloride] the “concentration of DOX in the internal cavity of ferritin” value (FTH ferritin [1]) was 890 g/L, the “Optimal pH in reaction” value (FTH ferritin [2]) was 9 and the “incorporation efficiency of the reagent” value (FTHc ferritin) was 8.6 % (wt).

From patent US20210253651A1, “METHOD FOR PRODUCING ORGANIC COMPOUND-ENCAPSULATING FERRITIN” (Ajinomoto Co., Inc., priority 2018, published 2021)
